Experimental data: the supplement of paper PMC10307832

Experiments:
Assay in all cases: relative viability (nuclei count vs DMSO), 5 days (fraction); higher = more cells survive
SW 1573 = system: SW 1573
Procedure, shortened: (§1)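 One day after seeding in 1536-well plates, lung cancer cell lines were dosed by pin tool. Dosing was either single-drug or a fixed anchor-drug dose plus five library-drug doses (not always all listed) in √10 steps. After 5 days, nuclei were stained in one fix-and-stain step and counted on 4× images, and relative viability is the nuclei count of treated wells over that of vehicle wells, given as the median of duplicate plates.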

NCI-H1793 = system: NCI-H1793
Procedure, shortened: as §1

NCI-H1975 = system: NCI-H1975
Procedure, shortened: as §1

NCI-H650 = system: NCI-H650
Procedure, shortened: as §1

COR-L23 = system: COR-L23
Procedure, shortened: as §1

NCI-H2023 = system: NCI-H2023
Procedure, shortened: as §1

NCI-H1993 = system: NCI-H1993
Procedure, shortened: as §1

LOU-NH91 = system: LOU-NH91
Procedure, shortened: as §1

BEN = system: BEN
Procedure, shortened: as §1

NCI-H1395 = system: NCI-H1395
Procedure, shortened: as §1

HARA = system: HARA
Procedure, shortened: as §1

RERF-LC-KJ = system: RERF-LC-KJ
Procedure, shortened: as §1

NCI-H2228 = system: NCI-H2228
Procedure, shortened: as §1

NCI-H1915 = system: NCI-H1915
Procedure, shortened: as §1

NCI-H2405 = system: NCI-H2405
Procedure, shortened: as §1

LU99A = system: LU99A
Procedure, shortened: as §1

EKVX = system: EKVX
Procedure, shortened: as §1

A-427 = system: A-427
Procedure, shortened: as §1

NCI-H1666 = system: NCI-H1666
Procedure, shortened: as §1

NCI-H1650 = system: NCI-H1650
Procedure, shortened: as §1

NCI-H460 = system: NCI-H460
Procedure, shortened: as §1

NCI-H838 = system: NCI-H838
Procedure, shortened: as §1

SMILES: COCC1(CO)C(=O)C2CCN1CC2 (stereo not drawn) [PRIMA-1MET] + N=C(N)NC(=N)NCCc1ccccc1 [Phenformin] (partner 250 µM)
- relative viability (SW 1573; first compound 0.2 µM): 0.408
- relative viability (SW 1573; first compound 0.6325 µM): 0.291
- relative viability (SW 1573; first compound 2 µM): 0.393
- relative viability (SW 1573; first compound 6.325 µM): 0.22
- relative viability (SW 1573; first compound 20 µM): 0.0256
- relative viability (NCI-H1793; first compound 0.2 µM): 0.465
- relative viability (NCI-H1793; first compound 0.6325 µM): 0.32
- relative viability (NCI-H1793; first compound 6.325 µM): 0.444
- relative viability (NCI-H1793; first compound 20 µM): 0.326
- relative viability (NCI-H1975; first compound 0.2 µM): 0.41
- relative viability (NCI-H1975; first compound 0.6325 µM): 0.4
- relative viability (NCI-H1975; first compound 2 µM): 0.381
- relative viability (NCI-H1975; first compound 6.325 µM): 0.42
- relative viability (NCI-H1975; first compound 20 µM): 0.194
- relative viability (NCI-H650; first compound 0.2 µM): 0.595
- relative viability (NCI-H650; first compound 2 µM): 0.433
- relative viability (NCI-H650; first compound 6.325 µM): 0.482
- relative viability (NCI-H650; first compound 20 µM): 0.438
- relative viability (COR-L23; first compound 0.2 µM): 0.554
- relative viability (COR-L23; first compound 0.6325 µM): 0.413
- relative viability (COR-L23; first compound 2 µM): 0.477
- relative viability (COR-L23; first compound 6.325 µM): 0.343
- relative viability (COR-L23; first compound 20 µM): 0.0169
- relative viability (NCI-H2023; first compound 0.2 µM): 0.453
- relative viability (NCI-H2023; first compound 0.6325 µM): 0.447
- relative viability (NCI-H2023; first compound 2 µM): 0.398
- relative viability (NCI-H2023; first compound 6.325 µM): 0.405
- relative viability (NCI-H2023; first compound 20 µM): 0.284
- relative viability (NCI-H1993; first compound 0.2 µM): 0.503
- relative viability (NCI-H1993; first compound 0.6325 µM): 0.526
- relative viability (NCI-H1993; first compound 2 µM): 0.496
- relative viability (NCI-H1993; first compound 6.325 µM): 0.544
- relative viability (NCI-H1993; first compound 20 µM): 0.57
- relative viability (LOU-NH91; first compound 0.2 µM): 0.724
- relative viability (LOU-NH91; first compound 0.6325 µM): 0.667
- relative viability (LOU-NH91; first compound 2 µM): 0.554
- relative viability (LOU-NH91; first compound 6.325 µM): 0.712
- relative viability (LOU-NH91; first compound 20 µM): 0.392
- relative viability (BEN; first compound 0.2 µM): 0.268
- relative viability (BEN; first compound 0.6325 µM): 0.275
- relative viability (BEN; first compound 6.325 µM): 0.217
- relative viability (BEN; first compound 20 µM): 0.224
- relative viability (NCI-H1395; first compound 0.2 µM): 0.469
- relative viability (NCI-H1395; first compound 0.6325 µM): 0.414
- relative viability (NCI-H1395; first compound 2 µM): 0.416
- relative viability (NCI-H1395; first compound 6.325 µM): 0.441
- relative viability (NCI-H1395; first compound 20 µM): 0.395
- relative viability (HARA; first compound 0.2 µM): 0.526
- relative viability (HARA; first compound 0.6325 µM): 0.421
- relative viability (HARA; first compound 6.325 µM): 0.538
- relative viability (HARA; first compound 20 µM): 0.409
- relative viability (RERF-LC-KJ; first compound 0.2 µM): 0.493
- relative viability (RERF-LC-KJ; first compound 0.6325 µM): 0.432
- relative viability (RERF-LC-KJ; first compound 2 µM): 0.449
- relative viability (RERF-LC-KJ; first compound 6.325 µM): 0.52
- relative viability (RERF-LC-KJ; first compound 20 µM): 0.427
- relative viability (NCI-H2228; first compound 0.2 µM): 0.41
- relative viability (NCI-H2228; first compound 0.6325 µM): 0.278
- relative viability (NCI-H2228; first compound 2 µM): 0.336
- relative viability (NCI-H2228; first compound 6.325 µM): 0.213
- relative viability (NCI-H2228; first compound 20 µM): 0.0266
- relative viability (NCI-H1915; first compound 0.2 µM): 0.44
- relative viability (NCI-H1915; first compound 0.6325 µM): 0.345
- relative viability (NCI-H1915; first compound 6.325 µM): 0.399
- relative viability (NCI-H1915; first compound 20 µM): 0.353
- relative viability (NCI-H2405; first compound 0.2 µM): 0.296
- relative viability (NCI-H2405; first compound 0.6325 µM): 0.401
- relative viability (NCI-H2405; first compound 6.325 µM): 0.288
- relative viability (NCI-H2405; first compound 20 µM): 0.0656
- relative viability (LU99A; first compound 0.2 µM): 0.646
- relative viability (LU99A; first compound 0.6325 µM): 0.736
- relative viability (LU99A; first compound 2 µM): 0.734
- relative viability (LU99A; first compound 6.325 µM): 0.831
- relative viability (LU99A; first compound 20 µM): 0.0482
- relative viability (EKVX; first compound 0.2 µM): 0.219
- relative viability (EKVX; first compound 0.6325 µM): 0.221
- relative viability (EKVX; first compound 6.325 µM): 0.217
- relative viability (EKVX; first compound 20 µM): 0.222
- relative viability (A-427; first compound 0.2 µM): 0.221
- relative viability (A-427; first compound 0.6325 µM): 0.294
- relative viability (A-427; first compound 2 µM): 0.304
- relative viability (A-427; first compound 6.325 µM): 0.281
- relative viability (A-427; first compound 20 µM): 0.133
- relative viability (NCI-H1666; first compound 0.2 µM): 0.558
- relative viability (NCI-H1666; first compound 0.6325 µM): 0.548
- relative viability (NCI-H1666; first compound 2 µM): 0.555
- relative viability (NCI-H1666; first compound 6.325 µM): 0.634
- relative viability (NCI-H1666; first compound 20 µM): 0.564
- relative viability (NCI-H1650; first compound 0.2 µM): 0.569
- relative viability (NCI-H1650; first compound 0.6325 µM): 0.443
- relative viability (NCI-H1650; first compound 2 µM): 0.453
- relative viability (NCI-H1650; first compound 6.325 µM): 0.434
- relative viability (NCI-H1650; first compound 20 µM): 0.0427
- relative viability (NCI-H460; first compound 0.2 µM): 0.658
- relative viability (NCI-H460; first compound 0.6325 µM): 0.495
- relative viability (NCI-H460; first compound 2 µM): 0.481
- relative viability (NCI-H460; first compound 6.325 µM): 0.042
- relative viability (NCI-H460; first compound 20 µM): 0.0117
- relative viability (NCI-H838; first compound 0.2 µM): 0.574
- relative viability (NCI-H838; first compound 0.6325 µM): 0.535
- relative viability (NCI-H838; first compound 2 µM): 0.451
- relative viability (NCI-H838; first compound 6.325 µM): 0.712
- relative viability (NCI-H838; first compound 20 µM): 0.0931
